Test results published in patent US11236102B2, “Oxabicycloheptane prodrugs” (Lixte Biotechnology, Inc., priority 2015, dated 2022).
Values joined by “and” are separate entries in the source; they are usually repeats but may differ in a detail not shown here. Equal entries are not always repeated. “Also recorded” adds a separate entry of the source.

Key:
in vivo = conditions: rat, 1.4 mg/kg
Experimental: 113 was dissolved in 4% NaHCO3 in saline for IV administration. The detailed procedure of dosing solution preparation was presented in Appendix I.
15 animals were placed on the study. The animals in IV arm were free access to food and water. For PO dose group, the animals were fasted overnight prior to dosing and the food was resumed 4 hours postdose.
The IV injection was conducted via foot dorsal vein. PO via oral gavage.
Blood collection: The animal is restrained manually. Approximately 200 μL of blood/time point is collected into sodium heparin tube via cardiac puncture for terminal bleeding (anesthetized under carbon dioxide). Blood sample will be put on ice and centrifuged to obtain plasma sample (2000 g, 5 min under 4° C.) within 10 minutes.
Liver collection: The animal will be euthanized with carbon dioxide inhalation. Open abdominal cavity with scissor to expose internal organs. Hold the carcass in an upright position and allow the organs to fall forward. Cut the connective tissues and remove the organs. Then the organs are rinsed with cold saline, dried on filtrate paper, placed into a screw-top tube and weighed, snap frozen by placing into dry-ice immediately.
Brain collection: Make a mid-line incision in the animals scalp and retract the skin. Using small bone cutters and rongeurs, remove the skull overlying the brain. Remove the brain using a spatula and rinse with cold saline, dried on filtrate paper, placed into a screw-top tube and weighed, snap frozen by placing into dry-ice immediately. […] Plasma, brain and liver samples were stored at approximately −80° C. until analysis. The backup samples will be discarded after three weeks after in-life completion unless requested. The unused dosing solutions will be discarded within three weeks after completion of the study.
Pharmacokinetic Analysis Software: The PK parameters were determined by non-compartmental model of non-compartmental analysis tool, Pharsight Phoenix WinNonlin® 6.2 software. […] Concentration data within 80%-120% of LLOQ was considered within normal instrumental variation and presented in the results. Terminal t1/2 calculation: Time points were automatic selected by “best fit” model for terminal half life estimation as the first option. Manual selection was applied when “best fit” could not well define the terminal phase. Results

[1] = Pharmacokinetic study of 157 (iv, po) in SD rats: 157 and endothal in plasma, liver, brain; assay type: in vivo
Experimental: The blood, liver and brain tissue samples were collected at predetermined times from rats. […] Compound were diluted shortly before use in 4% sodium bicarbonate for sterile injection (this is the standard pediatric solution of NaHCO3 with a pH of about 8.5).
Compound 153 was freshly prepared by diluting the drugs shortly before use in 4% sodium bicarbonate for sterile injection (this is the standard pediatric solution of NaHCO3 with a pH of about 8.5). The final concentrations of 153 solutions were 0.25 mg/mL. The 153 solutions were administered via iv or po route at dose volume of 5 ml/kg according to the latest body weight. Compound 157 was freshly prepared by diluting the drugs shortly before use in 4% sodium bicarbonate for sterile injection (this is the standard pediatric solution of NaHCO3 with a pH of about 8.5). […] The 157 solutions were administered via iv or po route at dose volume of 5 ml/kg according to the latest body weight.
Twelve (12) female SD rats per group were dosed by iv with 153 or 157. The rats were fasted overnight prior to dosing, with free access to water. Foods were withheld for 2 hours post-dose. Blood, liver and brain tissue samples in two animals each group were collected at each time point, within 10% of the scheduled time for each time point. Two extra animals were used for analytic method development.
Blood (>0.3 mL) were collected via aorta abdominalis in anaesthetic animals into tubes containing heparin at 15 min, 1, 2, 6, 10 and 24 hours after iv administration. Liver and brain tissues were collected immediately after animal death. The liver and brain tissues were excised and rinsed with cold saline to avoid blood residual. Upon collection, each sample was placed on ice and the blood samples were subsequently centrifuged (4° C., 11000 rpm, 5 min) to separate plasma.
The obtained plasma, liver and brain tissue samples were stored at −70° C. until LC-MS/MS analysis.
Two (2) female SD rats per group were dosed by po with 153 or 157. The rats were fasted overnight prior to dosing, with free access to water. Foods were withheld for 2 hours post-dose. Blood samples (>0.3 mL) were collected via aorta abdominalis in anaesthetic animals into tubes containing heparin at 30 min, 1, 2, 6, 10 and 24 hours after po administration.
To each sample, 30 μL IS-D (for blank samples, 20 μL acetonitrile:water (1:1) was added) and 300 ul acetonitrile was added. The sample mixture was vortexed for approximately 3 min. After centrifugation at 10000 rpm for 5 min at 4° C., 100 μL of the upper layer was transferred to a new tube and added 200 μL 0.4% formic acid in water (pH6.0). The mixture was vortexed for approximately 3 min before injected onto the LC/MS/MS system for analysis.
On the day of the assay, the frozen liver and brain samples were thawed unassisted at room temperature. An about 200 mg weighed sample of each thawed tissue was placed into a plastic tube with water (0.6 mL) to facilitate homogenization. Tissue processing was conducted using a homogenizer for approximately 1 min, […] homogenate was transferred into a fresh Eppendorf tube. To each tube, 50 μL IS-D was added and mixed. Then 500 ul acetonitrile was added and the sample mixture was vortexed for approximately 3 min. After centrifugation at 10000 rpm for 5 min at 4° C., 100 μL of the upper layer was transferred to a new tube and evaporate the supernatant to dryness at 35° C. Reconstitute the residue with 200 μL of 0.4% formic acid in water (pH 6.0), and vortex for 3 min, submit for LC-MS/MS analysis.
Frozen unknown plasma samples were completely thawed at room temperature and vortexed thoroughly. With a pipette, 50 μL of plasma was transferred into a 2.0 mL Eppendorf tube. 50 μL of 0.1N HCl and 800 μL ethyl acetate were added into each sample. The sample mixture was vortexed for approximately 3 min.

[2] = Whole blood stability (half-life) and metabolite formation; assay type: in vitro ADME, rat, dog, monkey and human; conditions: for metabolism in whole blood metabolite study: rat, dog
Experimental: (§1) The stability (whole blood, liver S9, SGF, SIF, and PBS buffer) and MDCK-MDR1 monolayer permeability of LB100, LB-100 Carbonate and LB-100 POM were evaluated.
(§2) Samples were analyzed by LC-MS/MS using a SCIEX QTrap 5500 mass spectrometer coupled with an Agilent 1290 HPLC Infinity series, a CTC PAL chilled autosampler, all controlled by Analyst software. After separation on a C18 reverse phase HPLC column (Acquity UPLC HSS T3, 1.8, 2.1×50 mm) using an acetonitrile-water gradient system, peaks were analyzed by mass spectrometry (MS) using […] ionization in MRM mode.
Whole Blood Stability: Experimental Conditions Experimental Procedure: The stock solution was first diluted in acetonitrile at a concentration that is 100× of the desired final concentration. It was incubated in duplicate with whole blood at 37° C. At indicated times, an aliquot was removed from each experimental and control reaction and mixed with three volumes of ice-cold Stop Solution (methanol containing propranolol as internal standard). Stopped reactions were incubated at least ten minutes at −20° C. The samples were centrifuged to remove precipitated protein, and the supernatants were analyzed by LC-MS/MS to quantitate the remaining parent and the formation of metabolites.
Data were converted to % remaining by dividing by the time zero concentration value. Data were fit to a first-order decay model to determine half-life.

[3] = Liver S9 stability and metabolite formation; assay type: in vitro ADME, rat, dog, monkey and human; conditions: presence and absence of NADPH, cross species
Experimental: as §1, §2
Experimental Procedure: Test agent is incubated in duplicate with liver S9 at 37° C. The reaction contains liver S9 protein in 100 mM potassium phosphate, 2 mM NADPH, 3 mM MgCl2, pH 7.4. A control is run for each test agent omitting NADPH to detect NADPH-free degradation. At indicated times, an aliquot is removed from each experimental and control reaction and mixed with an equal volume of ice-cold Stop Solution (methanol, containing internal standard propranolol). Stopped reactions are incubated for 10 minutes at −20° C. Samples are centrifuged to remove precipitated protein, and supernatants are analyzed by LC/MS/MS to quantitate remaining parent and the formation of metabolites. Data are reported as % remaining by dividing by the time zero concentration value.

[4] = fostriecin iv daily for 5 days, phase I trials; cited from earlier work
[5] = iv 1.5 mg/kg, 0.25 hr, individual rats, 1.5 mg/kg
[6] = iv 1.5 mg/kg, 1 hr, individual rats, 1.5 mg/kg
[7] = iv 1.5 mg/kg, 2 hr, individual rats, 1.5 mg/kg
[8] = iv administration of 157 at 1.5 mg/kg
[9] = plasma, 157 1.5 mg/kg IV, individual rats, 1.5 mg/kg
[10] = plasma, 157 1.5 mg/kg PO, individual rats, 1.5 mg/kg

## CN1CCN(C(=O)C2C(C(=O)OCC(Cl)(Cl)Cl)[C@H]3CC[C@@H]2O3)CC1 (stereo partly shown) [Compound 113]
In vivo; male, SD, po, 2 hr
  plasma concentration of 113: 2.15 ng/mL
In vivo; male, SD, po, plasma concentration of 113
  concentration at 2 hr: 2.15 ng/mL
In vivo; male, Sprague-Dawley, iv
  AUC(0-t): 155 ng·h/mL
  Tmax: 15 min
In vivo; male, Sprague-Dawley, po
  AUC(0-t): 15.7 ng·h/mL
  AUC(0-t) of 113: 15.7 ng·h/mL
  Cmax: 17.7 ng/mL
  F of 113: 10.1%
  Tmax: 15 min
In vivo
  clinical symptoms: No abnormal clinical symptom was observed
In vivo; iv
  AUC(0-last) in brain: 47.5 ng·h/g
  AUC(0-last) in liver: 28.1 ng·h/g

## CCCCCCCOC(=O)C1C2CCC(O2)C1C(=O)N1CCN(C)CC1 (stereo not shown) [Compound 157]
[1]; 157 administered to rats
  metabolism to endothal in vivo: metablozied to endothal in vivo; also recorded: converted to endothal in the plasma
[1]; 157 at 1.5 mg/kg po to SD rats
  oral availability: poorly orally available
[1]; PO 1.5 mg/kg, 0.5 hr, individual rats, 1.5 mg/kg
  157 plasma concentration: 5.92 ng/mL and 6.35 ng/mL
[1]; PO 1.5 mg/kg, 0.5 hr, mean
  157 plasma concentration: 6.14 ng/mL
[1]; PO 1.5 mg/kg, 1 hr, individual rats, 1.5 mg/kg
  157 plasma concentration: 1.48 ng/mL and 1.26 ng/mL
[1]; PO 1.5 mg/kg, 1 hr, mean
  157 plasma concentration: 1.37 ng/mL
[1]; PO 1.5 mg/kg, 2 hr, individual rats, 1.5 mg/kg
  157 plasma concentration: 0.303 ng/mL and 0.194 ng/mL
[1]; PO 1.5 mg/kg, 2 hr, mean
  157 plasma concentration: 0.249 ng/mL
[1]; female, Sprague-Dawley, rat, in vivo, 157 1.5 mg/kg PO vs IV, mean, read-out: F (bioavailability, BA)
  bioavailability: 6.78%
[1]; iv 1.5 mg/kg, 0.25 hr, individual rats
  157 brain concentration: 60.0 ng/g
[1]; [5]
  157 liver concentration: 337 ng/g and 257 ng/g
  157 plasma concentration: 116 ng/mL and 114 ng/mL
[1]; iv 1.5 mg/kg, 0.25 hr, mean
  157 brain concentration: 60.0 ng/g
  157 liver concentration: 297 ng/g
  157 plasma concentration: 115 ng/mL
[1]; [6]
  157 brain concentration: 1.99 ng/g and 2.80 ng/g
  157 liver concentration: 29.4 ng/g and 17.6 ng/g
  157 plasma concentration: 2.67 ng/mL and 3.57 ng/mL
[1]; iv 1.5 mg/kg, 1 hr, mean
  157 brain concentration: 2.40 ng/g
  157 liver concentration: 23.5 ng/g
  157 plasma concentration: 3.12 ng/mL
[1]; iv 1.5 mg/kg, 2 hr, individual rats
  157 brain concentration: BLQ
[1]; [7]
  157 liver concentration: 6.40 ng/g and 9.72 ng/g
  157 plasma concentration: 0.491 ng/mL and 0.556 ng/mL
[1]; iv 1.5 mg/kg, 2 hr, mean
  157 liver concentration: 8.06 ng/g
  157 plasma concentration: 0.524 ng/mL
[1]; iv 1.5 mg/kg, 10 hr, individual rats
  157 liver concentration: BLQ
[1]; [8]
  AUClast in brain: 24.6 ng·h/g
  AUClast in liver: 152 ng·h/g
[1]; [9]
  AUC: 47.3 ng·h/mL
  AUC0-∞: 47.3 ng·h/mL
  Cmax: 116 ng/mL and 114 ng/mL
[1]; plasma, 157 1.5 mg/kg IV, mean
  AUC: 47.2 ng·h/mL
  AUC0-∞: 47.2 ng·h/mL
[1]; [10]
  AUC: 3 ng·h/mL
  AUC0-∞: 3 ng·h/mL

## CCOC(=O)OCOC(=O)[C@H]1[C@@H](C(=O)N2CCN(C)CC2)[C@@H]2CC[C@H]1O2 [LB-100 Carbonate]
[2]; blood
  metabolite formation in whole blood half-life study: formation of endothall and LB-100 were observed
[2]; monkey, human
  metabolism in whole blood metabolite study: metabolized to endothall and LB-100

## CN1CCN(C(=O)C2C3CCC(O3)C2C(=O)OCOC(=O)C(C)(C)C)CC1 (stereo not shown) [LB-100 POM Ester]
[2]; cross species
  metabolite formation in whole blood half-life study: formation of endothall and LB-100 were observed
[2]; monkey and human
  metabolism in whole blood metabolite study: metabolized to endothall and LB-100
[3]
  metabolites observed in liver S9 stability study: metabolites LB-100 and endothall were observed

## C[C@@](O)(/C=C/[C@H]1CC=CC(=O)O1)[C@@H](C[C@@H](O)\C=C/C=C\C=C\CO)OP(=O)(O)O [fostriecin]
[4]
  dose limiting toxicity: Dose limiting toxicity was not achieved
  major toxicities: reversible non-cumulative increases in serum creatinine and hepatic enzymes
